Laboratory results from ChEMBL document CHEMBL5120855, “Potent 2,3-dihydrophthalazine-1,4-dione derivatives as dual inhibitors for mono-ADP-ribosyltransferases PARP10 and PARP15” (Eur J Med Chem, 2022).

How the values were obtained:
[1] = target: T1, Protein mono-ADP-ribosyltransferase PARP10 (Homo sapiens, UniProt Q53GL7); test: Inhibition of human PARP-10 using NAD+ as substrate incubated for 10 mins by fluorescence based analysis
T1 sequence (Q53GL7 whole entry): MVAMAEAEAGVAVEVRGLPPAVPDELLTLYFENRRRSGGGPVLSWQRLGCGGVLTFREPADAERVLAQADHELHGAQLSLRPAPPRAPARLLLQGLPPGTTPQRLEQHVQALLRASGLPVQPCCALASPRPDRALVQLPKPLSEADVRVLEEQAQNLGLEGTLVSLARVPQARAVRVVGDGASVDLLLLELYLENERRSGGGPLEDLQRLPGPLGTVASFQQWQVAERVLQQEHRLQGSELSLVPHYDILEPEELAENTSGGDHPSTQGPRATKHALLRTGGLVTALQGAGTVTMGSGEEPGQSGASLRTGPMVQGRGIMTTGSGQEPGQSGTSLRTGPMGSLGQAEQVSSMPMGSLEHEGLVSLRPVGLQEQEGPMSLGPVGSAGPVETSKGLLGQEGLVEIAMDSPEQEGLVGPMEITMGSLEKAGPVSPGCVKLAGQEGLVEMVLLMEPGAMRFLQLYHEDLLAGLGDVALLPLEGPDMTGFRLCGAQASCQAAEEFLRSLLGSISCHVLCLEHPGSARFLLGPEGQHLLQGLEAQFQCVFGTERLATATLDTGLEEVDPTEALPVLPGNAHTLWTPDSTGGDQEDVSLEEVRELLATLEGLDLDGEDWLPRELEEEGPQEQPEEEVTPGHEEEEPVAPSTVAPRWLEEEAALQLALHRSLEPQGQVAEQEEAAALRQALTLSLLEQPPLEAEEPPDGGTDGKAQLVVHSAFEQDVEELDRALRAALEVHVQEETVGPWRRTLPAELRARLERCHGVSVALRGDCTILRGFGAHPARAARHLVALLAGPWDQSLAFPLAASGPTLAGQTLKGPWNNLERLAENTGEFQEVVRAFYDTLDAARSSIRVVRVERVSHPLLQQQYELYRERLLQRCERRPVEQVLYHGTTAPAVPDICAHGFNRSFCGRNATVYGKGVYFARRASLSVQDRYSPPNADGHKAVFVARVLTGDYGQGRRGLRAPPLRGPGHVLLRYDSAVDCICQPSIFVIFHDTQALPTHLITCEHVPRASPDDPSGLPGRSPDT

[2] = target: T2, Poly [ADP-ribose] polymerase tankyrase-2 (Homo sapiens, UniProt Q9H2K2); test: Inhibition of human N-terminal 6His-tagged TNKS2 (1030 to 1317 residues) expressed in Escherichia coli Rosetta2 (DE3) cells using NAD+ as substrate incubated for 10 mins by fluorescence based analysis
T2 sequence (Q9H2K2 whole entry): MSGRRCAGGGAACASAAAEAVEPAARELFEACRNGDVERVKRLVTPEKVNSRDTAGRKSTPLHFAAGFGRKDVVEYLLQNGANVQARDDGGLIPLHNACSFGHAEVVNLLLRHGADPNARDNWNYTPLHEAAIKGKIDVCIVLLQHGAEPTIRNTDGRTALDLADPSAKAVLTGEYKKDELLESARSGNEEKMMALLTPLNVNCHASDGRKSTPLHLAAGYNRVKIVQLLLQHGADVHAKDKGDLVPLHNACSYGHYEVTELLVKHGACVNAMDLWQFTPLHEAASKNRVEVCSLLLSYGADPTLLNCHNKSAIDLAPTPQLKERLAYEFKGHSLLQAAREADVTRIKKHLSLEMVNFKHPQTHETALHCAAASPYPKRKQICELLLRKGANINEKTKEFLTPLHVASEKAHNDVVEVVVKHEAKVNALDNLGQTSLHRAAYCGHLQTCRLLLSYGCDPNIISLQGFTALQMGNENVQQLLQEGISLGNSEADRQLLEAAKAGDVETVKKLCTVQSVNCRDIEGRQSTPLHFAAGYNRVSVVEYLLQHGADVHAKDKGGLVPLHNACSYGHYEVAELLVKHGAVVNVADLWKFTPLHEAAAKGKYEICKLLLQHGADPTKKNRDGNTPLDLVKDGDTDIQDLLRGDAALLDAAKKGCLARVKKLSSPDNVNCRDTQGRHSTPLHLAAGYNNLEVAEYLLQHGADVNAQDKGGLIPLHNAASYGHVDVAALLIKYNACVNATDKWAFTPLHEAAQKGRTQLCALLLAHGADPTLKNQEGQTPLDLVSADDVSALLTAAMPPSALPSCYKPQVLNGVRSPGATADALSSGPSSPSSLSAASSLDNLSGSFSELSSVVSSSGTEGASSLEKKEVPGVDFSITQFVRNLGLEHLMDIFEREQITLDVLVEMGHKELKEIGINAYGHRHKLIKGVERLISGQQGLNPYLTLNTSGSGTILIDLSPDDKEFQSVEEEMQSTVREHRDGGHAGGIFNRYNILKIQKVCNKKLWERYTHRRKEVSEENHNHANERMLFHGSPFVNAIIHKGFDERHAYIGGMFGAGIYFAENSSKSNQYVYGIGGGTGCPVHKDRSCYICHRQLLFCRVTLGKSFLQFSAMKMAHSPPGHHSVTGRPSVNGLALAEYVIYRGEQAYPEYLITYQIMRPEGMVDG

[3] = target: T3, Protein mono-ADP-ribosyltransferase PARP3 (Homo sapiens, UniProt Q9Y6F1); test: Inhibition of human PARP3
T3 sequence (Q9Y6F1 whole entry): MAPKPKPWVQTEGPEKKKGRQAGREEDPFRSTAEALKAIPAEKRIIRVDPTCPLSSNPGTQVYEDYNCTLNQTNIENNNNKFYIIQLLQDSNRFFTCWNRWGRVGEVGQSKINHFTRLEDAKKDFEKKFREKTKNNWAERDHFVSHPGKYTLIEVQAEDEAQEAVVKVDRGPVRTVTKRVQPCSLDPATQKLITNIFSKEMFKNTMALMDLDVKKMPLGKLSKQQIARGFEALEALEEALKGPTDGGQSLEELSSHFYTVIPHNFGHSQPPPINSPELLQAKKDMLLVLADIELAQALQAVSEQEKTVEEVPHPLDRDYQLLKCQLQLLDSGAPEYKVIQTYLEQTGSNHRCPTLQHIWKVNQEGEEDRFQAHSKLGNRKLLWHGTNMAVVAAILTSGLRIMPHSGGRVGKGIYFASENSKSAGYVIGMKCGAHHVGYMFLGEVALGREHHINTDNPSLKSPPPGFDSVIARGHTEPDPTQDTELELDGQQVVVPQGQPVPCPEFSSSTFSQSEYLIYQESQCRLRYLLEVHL

[4] = target: Protein mono-ADP-ribosyltransferase PARP4 (Homo sapiens, UniProt Q9UKK3); test: Inhibition of human PARP4
Protein mono-ADP-ribosyltransferase PARP4, sequence (Q9UKK3 whole entry): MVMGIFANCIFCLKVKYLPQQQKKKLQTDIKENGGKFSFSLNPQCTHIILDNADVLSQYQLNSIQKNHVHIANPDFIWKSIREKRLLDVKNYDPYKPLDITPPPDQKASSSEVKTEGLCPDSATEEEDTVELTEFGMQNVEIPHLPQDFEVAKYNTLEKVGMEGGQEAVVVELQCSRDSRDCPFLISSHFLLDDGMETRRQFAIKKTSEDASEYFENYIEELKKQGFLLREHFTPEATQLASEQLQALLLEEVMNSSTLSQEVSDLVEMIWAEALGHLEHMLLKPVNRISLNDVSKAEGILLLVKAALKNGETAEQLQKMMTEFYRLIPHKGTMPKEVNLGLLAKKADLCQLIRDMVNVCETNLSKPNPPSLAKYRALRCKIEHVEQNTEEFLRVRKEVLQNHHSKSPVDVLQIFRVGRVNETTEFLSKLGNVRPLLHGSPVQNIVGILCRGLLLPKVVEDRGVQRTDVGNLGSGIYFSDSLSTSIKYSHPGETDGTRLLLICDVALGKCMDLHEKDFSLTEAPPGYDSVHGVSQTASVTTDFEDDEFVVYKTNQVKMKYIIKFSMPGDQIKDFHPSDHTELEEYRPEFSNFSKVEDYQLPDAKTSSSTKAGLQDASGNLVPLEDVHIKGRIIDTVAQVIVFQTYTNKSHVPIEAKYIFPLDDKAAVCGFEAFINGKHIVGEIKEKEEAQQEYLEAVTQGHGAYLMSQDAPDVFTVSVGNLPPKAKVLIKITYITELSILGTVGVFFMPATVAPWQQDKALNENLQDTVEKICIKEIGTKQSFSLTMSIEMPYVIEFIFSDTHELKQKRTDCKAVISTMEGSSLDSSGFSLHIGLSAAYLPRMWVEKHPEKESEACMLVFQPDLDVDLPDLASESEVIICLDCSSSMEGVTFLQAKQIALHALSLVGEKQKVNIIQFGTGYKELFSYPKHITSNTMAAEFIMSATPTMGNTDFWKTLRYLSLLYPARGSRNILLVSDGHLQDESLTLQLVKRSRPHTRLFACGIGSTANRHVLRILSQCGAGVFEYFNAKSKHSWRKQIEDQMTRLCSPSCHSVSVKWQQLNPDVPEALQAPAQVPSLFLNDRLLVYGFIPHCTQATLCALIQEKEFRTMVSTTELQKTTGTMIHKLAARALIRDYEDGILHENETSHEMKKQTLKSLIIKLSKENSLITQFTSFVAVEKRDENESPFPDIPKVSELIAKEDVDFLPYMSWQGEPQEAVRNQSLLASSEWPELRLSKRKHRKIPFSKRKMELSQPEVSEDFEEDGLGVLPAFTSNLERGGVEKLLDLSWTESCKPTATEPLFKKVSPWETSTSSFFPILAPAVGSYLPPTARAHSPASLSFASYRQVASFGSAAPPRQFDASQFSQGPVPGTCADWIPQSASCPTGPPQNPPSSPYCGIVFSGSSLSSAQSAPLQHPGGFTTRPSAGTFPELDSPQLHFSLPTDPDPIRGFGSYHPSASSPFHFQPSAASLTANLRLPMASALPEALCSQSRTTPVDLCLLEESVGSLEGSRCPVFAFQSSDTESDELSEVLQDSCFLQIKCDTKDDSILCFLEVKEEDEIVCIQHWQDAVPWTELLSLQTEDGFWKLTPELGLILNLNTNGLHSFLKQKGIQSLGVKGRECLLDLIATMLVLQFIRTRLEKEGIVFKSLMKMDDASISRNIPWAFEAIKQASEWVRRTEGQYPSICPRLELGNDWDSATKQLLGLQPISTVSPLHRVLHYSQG

Compound: NC(=O)c1ccc(OCC2CCC2)cc1
- IC50 [1]: 0.29 µM
- IC50 [2]: > 100 µM
- IC50 [3]: > 100 µM
- IC50 [4]: > 100 µM
